Several values for one entry are separate records, joined by “and”; a condition that tells them apart may be missing. Equal entries are not always repeated.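 48-hour exposure; five concentrations; linearly interpolated endpoints. Here, GI50 denotes the concentration required for 50% inhibition of growth. TGI marks complete inhibition of growth.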

Assay in all cases: NCI-60 cell line screen, 48 h
The subject of assay [1] is OVCAR-8 ovarian.
Assay [2] deals with SF-539 CNS.
In assay [3] the test system is SF-295 CNS.
The subject of assay [4] is SNB-75 CNS.
In assay [5] the test system is MDA-MB-231 breast.
Assay [6] deals with SNB-19 CNS.
Assay [7] deals with UO-31 renal.
For assay [8], the system named is SN12C renal.
Assay [9] deals with RPMI-8226 leukemia.
Assay [10] concerns IGROV1 ovarian.

As for `ClCc1cccc(Cn2cnc3c(Cl)nc(Cl)nc32)c1`, the GI50 in [1] is 1.81 µM; in assay [2], 2.2 µM; in [3] it was 4.37 µM; in assay [4], 2.04 µM; in [5], 1.95 µM; in [6], 1.96 µM. In addition, the GI50 in [7] is 1.58 µM; in assay [8] it was 2.14 µM; in [9], 3.29 µM; in [10], 2.27 µM. In addition, the TGI amounted to 3.51 µM in assay [1]; 14.1 µM in assay [2]; 17.1 µM in assay [3]; 3.89 µM in assay [4]; 3.76 µM in [5]; 4.17 µM in assay [6]. Moreover, the TGI in assay [7] is 3.06 µM; in assay [8], 4.66 µM; in assay [9] it was above 100 µM; in assay [10] it was 5.18 µM.

For `N=c1ccc2nc3ccc(N)cc3sc-2c1`, the GI50 in assay [1] was 3.69 µM; in assay [2] it was 3.21 µM; in assay [3] it was 4.28 µM; in [4], 3.77 µM; in assay [5] it was 3.56 µM; in assay [6] it was 3.17 µM. In addition, the GI50 in [7] was 26 µM; in assay [8], 3.19 µM; in [9] it was 2.87 µM; in assay [10], 6.77 µM. Also, the TGI in assay [1] came to 14 µM; in [2], 8.62 µM; in assay [3], 59.1 µM; in assay [4] it was 16.4 µM; in [5], 20.3 µM; in assay [6] it was 14.9 µM. The TGI in [7] is above 100 µM; in assay [8], 11 µM; in [9] it was 26 µM; in assay [10], 75 µM.

Take `O=C(Nc1cccc2[nH]c(C(F)(F)F)nc12)c1cc(Cl)ccc1Cl`: the GI50 is 3.68 µM in [1]; 3.07 µM in [2]; 2.23 µM in [3]; 2.06 µM in [4]; 2.43 µM in assay [5]; 3.72 µM in [6]. Also, the GI50 is 2.78 µM in assay [7], 2.78 µM in assay [8], 2.3 µM in assay [9] and 6.04 µM in assay [10]. Further, the TGI in assay [1] was 31.6 µM; in [2], 15.3 µM; in assay [3], 6.55 µM; in assay [4] it was 8.06 µM; in assay [5] it was 6.71 µM; in assay [6] it was above 100 µM. Also, the TGI in [7] was 11.3 µM; in [8], 9.59 µM; in assay [9], 6.3 µM; in assay [10], above 100 µM.

With `CCCN(CCC)c1ccc(C=O)c(Cl)c1`, the GI50 in assay [1] was 28.4 µM; in [2], 23.8 µM; in assay [3] it was 3.87 µM; in assay [4] it was 16.5 µM; in assay [5], 18.9 µM; in [6], 25.8 µM. Also, the GI50 was 19.7 µM in assay [7], 28.1 µM in assay [8], 40.1 µM in assay [9] and 0.558 µM in [10]. Also, the TGI was above 100 µM in [1]; above 65 µM in [2]; 29.2 µM in [3]; 55.8 µM in assay [4]; 43.7 µM in assay [5]; above 100 µM in assay [6]. Besides, the TGI was above 83.8 µM in assay [7], above 100 µM in assay [8], above 100 µM in assay [9] and 7.18 µM in [10].

For `CC(=O)c1ccc2c(c1)N(CCCN1CCN(CCO)CC1)c1ccccc1S2`, the GI50 was 3.34 µM in assay [1]; 1.73 µM in assay [2]; 2.15 µM in assay [3]; 1.53 µM in assay [4]; 1.96 µM in assay [5]; 2.44 µM in [6]. Also, the GI50 in assay [7] was 1.79 µM; in assay [8] it was 3.88 µM; in [9], 2.4 µM; in assay [10], 2.16 µM. In addition, the TGI is 10.5 µM in assay [1]; 3.55 µM in [2]; 4.26 µM in [3]; 3.51 µM in [4]; 4.51 µM in assay [5]; 6.97 µM in assay [6]. Besides, the TGI in assay [7] came to 5.46 µM; in assay [8], 17 µM; in [9] it was 8.75 µM; in assay [10], 6.12 µM.

For `COc1ccc(-c2c(C#N)c(N)nc(N3CCOCC3)c2C#N)cc1`, the GI50 in assay [1] was 26 µM; in [2], 32.1 µM; in assay [3], 15 µM; in assay [4], 13.5 µM; in assay [5], 11 µM; in assay [6], 21.8 µM. Further, the GI50 in [7] was 13.1 µM; in assay [8], 25.7 µM; in [9] it was 16.1 µM; in assay [10] it was 3.08 µM. Moreover, the TGI in assay [1] is above 100 µM; in [2], above 100 µM; in assay [3], 50.1 µM; in assay [4] it was 60.7 µM; in assay [5], 35.1 µM; in [6], above 100 µM. For the same compound, the TGI in assay [7] is 49.2 µM; in assay [8], above 100 µM; in assay [9], 58.7 µM; in [10], 21 µM.

In the case of `CCCCCCNCCCNc1c2cc(OC)ccc2nc2cccc([N+](=O)[O-])c12`, the GI50 in [1] is 0.236 µM and 0.105 µM; in [2] it was 0.239 µM; in assay [3], 0.163 µM; in [4], 0.183 µM; in assay [5], 0.247 µM; in assay [6], 0.206 µM. In addition, the GI50 in assay [7] was 0.187 µM; in assay [8], 0.132 µM; in assay [9], 0.0646 µM; in [10] it was 0.223 µM. Also, the TGI in [1] is 2.45 µM and 0.644 µM; in [2], 1.18 µM and 0.616 µM; in assay [3] it was 0.413 µM and 1.03 µM; in assay [4], 0.865 µM and 0.42 µM; in assay [5] it was 0.481 µM and 1.02 µM; in assay [6], 3.86 µM and 1.02 µM. Further, the TGI in assay [7] is 0.703 µM and 0.431 µM; in [8] it was 0.421 µM and 0.343 µM; in assay [9], 0.14 µM and 0.348 µM.

The record behind these values is PubChem BioAssay (NCI).
